Data reported in patent US12679807B2 (MERCK SHARP & DOHME LLC, priority 2020, dated 2026).
pEC50: −log10 of the molar value.

target: T1, GCS enzyme contained within Golgi preparations isolated from human A375 malignant melanoma skin cells (Homo sapiens, UniProt Q16739); experiment: UDP-Glo glucosylceramide synthase biochemical assay; settings: crude Golgi preparation from A375 cells; C6 ceramide and UDP-glucose substrates; 20 h incubation at room temperature; UDP detected by luminescence
T1 construct: endogenous levels of GCS enzyme contained within Golgi preparations isolated from human A375 malignant melanoma skin cells; endogenous in cells; host or cells: A375 human malignant melanoma cells (crude Golgi preparation)
T1 sequence (Q16739 1-394): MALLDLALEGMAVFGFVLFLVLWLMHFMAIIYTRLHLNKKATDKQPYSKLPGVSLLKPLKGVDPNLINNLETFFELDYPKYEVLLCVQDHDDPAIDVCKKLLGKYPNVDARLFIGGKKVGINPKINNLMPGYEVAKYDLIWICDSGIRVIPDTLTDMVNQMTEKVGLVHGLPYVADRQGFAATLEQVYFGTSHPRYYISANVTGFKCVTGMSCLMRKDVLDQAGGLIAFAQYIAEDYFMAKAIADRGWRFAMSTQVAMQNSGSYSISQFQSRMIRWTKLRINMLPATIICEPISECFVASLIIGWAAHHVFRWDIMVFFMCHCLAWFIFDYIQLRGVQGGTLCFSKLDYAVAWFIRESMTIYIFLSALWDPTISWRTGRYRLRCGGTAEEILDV
Method in brief: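 Endogenous enzyme in A375 Golgi preparations (1.5 μg total protein) was preincubated 30 min with compound, then reacted 20 h at room temperature with UDP-glucose and ceramide.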

pEC50 | SMILES
8.70 | O=C(Nc1cccc2c1C(=O)N(C(C1CC1)C1CC1)C2)c1c(Br)ccc2c1OCO2 [Compound 109, 5-Bromo-N-(2-(dicyclopropylmethyl)-3-oxoisoindolin-4-yl)-benzo[d][1,3]dioxole-4-carboxamide]
8.28 | Cc1cnc2c(c1C(=O)Nc1cccc3c1C(=O)N(C(C1CC1)C1CC1)C3)OCO2 [Compound 117, N-(2-(dicyclopropylmethyl)-3-oxoisoindolin-4-yl)-6-methyl-[1,3]dioxolo[4,5-b]pyridine-7-carboxamide]
8.24 | O=C(Nc1cccc2c1C(=O)N(C(C1CC1)C1CC1)C2)c1c(Cl)cnc2c1OCO2 [Compound 118, 6-chloro-N-(2-(dicyclopropylmethyl)-3-oxoisoindolin-4-yl)-[1,3]dioxolo[4,5-b]pyridine-7-carboxamide]
7.82 | O=C(Nc1cccc2c1C(=O)N(C(C1CC1)C1CC1)C2)c1ccnc2c1CCC2 [Compound 121, N-(2-(dicyclopropylmethyl)-3-oxoisoindolin-4-yl)-6,7-dihydro-5H-cyclopenta[b]pyridine-4-carboxamide]
7.74 | Cc1ccc(Cl)c(C(=O)Nc2cccc3c2C(=O)N([C@@H](CO)C(C)C)C3)c1F [Compound 122, (R)-6-chloro-2-fluoro-N-(2-(1-hydroxy-3-methylbutan-2-yl)-3-oxoisoindolin-4-yl)-3-methylbenzamide]
7.59 | C[C@@H](N1Cc2cccc(NC(=O)c3c(Cl)ccc(F)c3Cl)c2C1=O)C(C)(C)O [Compound 123, (R)-2,6-dichloro-3-fluoro-N-(2-(3-hydroxy-3-methylbutan-2-yl)-3-oxoisoindolin-4-yl)benzamide]
7.59 | CC(C)[C@H](CO)N1Cc2cccc(NC(=O)c3c(Cl)ccc(F)c3Cl)c2C1=O [Compound 124, (R)-2,6-dichloro-3-fluoro-N-(2-(1-hydroxy-3-methylbutan-2-yl)-3-oxoisoindolin-4-yl)benzamide]
7.52 | CC(C)[C@H](CO)N1Cc2cccc(NC(=O)c3nc(C(F)(F)F)ccc3Cl)c2C1=O [Compound 125, (R)-3-chloro-N-(2-(1-hydroxy-3-methylbutan-2-yl)-3-oxoisoindolin-4-yl)-6-(trifluoromethyl)picolinamide]
7.46 | Cn1ccc2c(C(=O)Nc3cccc4c3C(=O)N(C(C3CC3)C3CC3)C4)cccc21 [Compound 126, N-(2-(dicyclopropylmethyl)-3-oxoisoindolin-4-yl)-1-methyl-1H-indole-4-carboxamide]
7.42 | C[C@@H](N1Cc2cccc(NC(=O)c3c(C(F)(F)F)cnc4ccccc34)c2C1=O)C(C)(C)O [Compound 127, (R)-N-(2-(3-hydroxy-3-methylbutan-2-yl)-3-oxoisoindolin-4-yl)-3-(trifluoromethyl)quinoline-4-carboxamide]
7.42 | O=C(Nc1cccc2c1C(=O)N(CC1CC1)C2)c1c2c(nc3ccccc13)CCC2 [Compound 128, N-(2-(cyclopropylmethyl)-3-oxoisoindolin-4-yl)-2,3-dihydro-1H-cyclopenta[b]quinoline-9-carboxamide]
7.42 | C[C@@H](N1Cc2cccc(NC(=O)c3nc(C(F)(F)F)ccc3Cl)c2C1=O)C(C)(C)O [Compound 129, (R)-3-chloro-N-(2-(3-hydroxy-3-methylbutan-2-yl)-3-oxoisoindolin-4-yl)-6-(trifluoromethyl)picolinamide]
7.40 | O=C(Nc1cccc2c1C(=O)N(CC1CC1)C2)c1c(C(F)(F)F)cnc2ccccc12 [Compound 130, N-(2-(cyclopropylmethyl)-3-oxoisoindolin-4-yl)-3-(trifluoromethyl)quinoline-4-carboxamide]
7.34 | CC(C)[C@H](CO)N1Cc2cccc(NC(=O)c3nc(Cl)ccc3C(F)(F)F)c2C1=O [Compound 132, (R)-6-chloro-N-(2-(1-hydroxy-3-methylbutan-2-yl)-3-oxoisoindolin-4-yl)-3-(trifluoromethyl)picolinamide]
7.31 | Cn1cc2c(C(=O)Nc3cccc4c3C(=O)N(C(C3CC3)C3CC3)C4)cccc2n1 [Compound 133, N-(2-(dicyclopropylmethyl)-3-oxoisoindolin-4-yl)-2-methyl-2H-indazole-4-carboxamide]
7.23 | Cc1cnc2c(c1C(=O)Nc1cccc3c1C(=O)N([C@@H](C)C1CC1)C3)OCO2 [Compound 134, (S)-N-(2-(1-cyclopropylethyl)-3-oxoisoindolin-4-yl)-6-methyl-[1,3]dioxolo[4,5-b]pyridine-7-carboxamide]
7.19 | COc1ccc2ncc(F)c(C(=O)Nc3cccc4c3C(=O)N(CC3CC3)C4)c2n1 [Compound 135, N-(2-(cyclopropylmethyl)-3-oxoisoindolin-4-yl)-3-fluoro-6-methoxy-1,5-naphthyridine-4-carboxamide]

pEC50 | SMILES
7.11 | C[C@@H](C1CC1)N1Cc2cccc(NC(=O)c3c(Cl)cnc4c3OCO4)c2C1=O [Compound 137, (S)-6-chloro-N-(2-(1-cyclopropylethyl)-3-oxoisoindolin-4-yl)-[1,3]dioxolo[4,5-b]pyridine-7-carboxamide]
7.06 | CCOc1ncccc1C(=O)Nc1cccc2c1C(=O)N([C@H](C)C(C)(C)O)C2 [Compound 138, (R)-2-ethoxy-N-(2-(3-hydroxy-3-methylbutan-2-yl)-3-oxoisoindolin-4-yl)nicotinamide]
6.92 | O=C(Nc1cccc2c1C(=O)N(CC1CC1)C2)c1c(Cl)cncc1Cl [Compound 139, 3,5-dichloro-N-(2-(cyclopropylmethyl)-3-oxoisoindolin-4-yl)isonicotinamide]
6.92 | C[C@@H](C1CC1)N1Cc2cccc(NC(=O)c3ccnc4c3CCC4)c2C1=O [Compound 140, (S)-N-(2-(1-cyclopropylethyl)-3-oxoisoindolin-4-yl)-6,7-dihydro-5H-cyclopenta[b]pyridine-4-carboxamide]
6.85 | O=C(Nc1cccc2c1C(=O)N(C(C1CC1)C1CC1)C2)c1ccnc2[nH]ccc12 [Compound 141, N-(2-(dicyclopropylmethyl)-3-oxoisoindolin-4-yl)-1H-pyrrolo[2,3-b]pyridine-4-carboxamide]
6.85 | O=C(Nc1cccc2c1C(=O)N(C(C1CC1)C1CC1)C2)c1ccc(F)c2c1CCC2=O [Compound 142, N-(2-(dicyclopropylmethyl)-3-oxoisoindolin-4-yl)-7-fluoro-1-oxo-2,3-dihydro-1H-indene-4-carboxamide]
6.74 | O=C(Nc1cc(Cl)cc2c1C(=O)N(CC1CC1)C2)c1ccnc2c1CCC2 [Compound 143, N-(6-chloro-2-(cyclopropylmethyl)-3-oxoisoindolin-4-yl)-6,7-dihydro-5H-cyclopenta[b]pyridine-4-carboxamide]
6.72 | O=C(Nc1cccc2c1C(=O)N(CC1CC1)C2)c1ccnc2ccc(F)cc12 [Compound 144, N-(2-(cyclopropylmethyl)-3-oxoisoindolin-4-yl)-6-fluoroquinoline-4-carboxamide]
6.59 | O=C(Nc1cccc2c1C(=O)N(C(C1CC1)C1CC1)C2)c1cccc2c1OCC2 [Compound 145, N-(2-(dicyclopropylmethyl)-3-oxoisoindolin-4-yl)-2,3-dihydrobenzofuran-7-carboxamide]
6.41 | O=C(Nc1cccc2c1C(=O)N(CC1CC1)C2)c1ccnc2c1CCC2 [Compound 146, N-(2-(cyclopropylmethyl)-3-oxoisoindolin-4-yl)-6,7-dihydro-5H-cyclopenta[b]pyridine-4-carboxamide]
6.25 | O=C(Nc1ccc(Cl)c2c1C(=O)N(CC1CC1)C2)c1ccnc2c1CCC2 [Compound 147, N-(7-chloro-2-(cyclopropylmethyl)-3-oxoisoindolin-4-yl)-6,7-dihydro-5H-cyclopenta[b]pyridine-4-carboxamide]
6.30 | Cc1cc2c(c(NC(=O)c3ccnc4c3CCC4)c1)C(=O)N(CC1CC1)C2 [Compound 148, N-(2-(Cyclopropylmethyl)-6-methyl-3-oxoisoindolin-4-yl)-6,7-dihydro-5H-cyclopenta[b]pyridine-4-carboxamide]
6.05 | O=C(Nc1ccc(O)c2c1C(=O)N(CC1CC1)C2)c1ccnc2c1CCC2 [Compound 149, N-(2-(Cyclopropylmethyl)-7-hydroxy-3-oxoisoindolin-4-yl)-6,7-dihydro-5H-cyclopenta[b]pyridine-4-carboxamide]
9.01 | CC(C)(O)[C@@H](C1CC1)N1Cc2cccc(NC(=O)c3cccn4nccc34)c2C1=O [Compound 156, (R)-N-(2-(1-cyclopropyl-2-hydroxy-2-methylpropyl)-3-oxoisoindolin-4-yl)pyrazolo[1,5-a]pyridine-4-carboxamide]
8.60 | COc1nccc(C(=O)Nc2cccc3c2C(=O)N([C@H](C2CC2)C(C)(C)O)C3)c1C [Compound 159, (R)-N-(2-(1-cyclopropyl-2-hydroxy-2-methylpropyl)-3-oxoisoindolin-4-yl)-2-methoxy-3-methylisonicotinamide]
8.04 | Cn1cc2c(C(=O)Nc3cc(F)cc4c3C(=O)N([C@H](C3CC3)C(C)(C)O)C4)cccc2n1 [Compound 161, (R)-N-(2-(1-cyclopropyl-2-hydroxy-2-methylpropyl)-6-fluoro-3-oxoisoindolin-4-yl)-2-methyl-2H-indazole-4-carboxamide]

SMILES | pEC50
O=C(Nc1cccc2c1C(=O)N(c1ccc(F)cc1)C2)OC1CN2CCC1CC2 (stereo not shown) [Compound 150, Quinuclidin-3-yl(2-(4-fluorophenyl)-3-oxoisoindolin-4-yl)carbamate] | 6.13
